{"source": "patent US20260248787A9", "about": "“MEDICAMENT FOR TREATING CANCER COMPRISING OPTICALLY ACTIVE AZABICYCLO RING DERIVATIVE” (Sumitomo Pharma Co., Ltd., priority 2023, published 2026)", "tested_on": "OCI-AML3 cells", "test": "Tumor-bearing mice transplanted with OCI-AML3 cells, with venetoclax and azacitidine, T/C (Example 13)", "format": "in vivo", "details": "oral, 21 days", "protocol": "The present compound was weighed and dissolved in 0.5 w/v % Methyl Cellulose 400 solution to give the compound concentrations of 20 mg/mL and 10 mg/mL. Venetoclax was weighed and suspended in a mixed solution of Phosal 50 propylene glycol (60%)/Polyethylene glycol-400 (30%)/Ethanol (10%) to give the compound concentration of 5 mg/mL. Azacitidine was weighed and dissolved in saline to give the compound concentration of 0.3 mg/mL.\nOCI-AML3 cells (DSMZ) were intradermally implanted around the ventral region of 6-week old NOD. CB17-PrkdcSCID/J mice (female, The Jackson Laboratory Japan) at 1×10^6 cells/mouse. […] The tumor volume was measured over time from the start of the administration, and the reduction effect of the tumor volume due to the compound-administration was evaluated. The tumor volume was calculated by the following formula using short axis and long axis of the tumor measured with an electronic caliper (Mitutoyo).\nThe control administration group in which only the solvent was administered and the test substance administration group were compared, and T/C was calculated using the following formula to evaluate the antitumor effect."}
{"molecule": "C=C1C[C@@H]2CC[C@H]1[C@@H](C(=O)N1CCC3(CC1)CN(c1ncncc1Oc1ccc(F)cc1C(=O)N(C(C)C)C(C)C)C3)N2", "note": "[the present compound, 5-fluoro-2-[(4-{7-[(1S,3S,4R)-5-methylidene-2-azabicyclo[2.2.2]octane-3-carbonyl]-2,7-diazaspiro[3.5]nonan-2-yl}pyrimidin-5-yl)oxy]-N,N-di(propan-2-yl)benzamide]", "values": [{"measurement": "T/C", "setting": "100 mg/kg", "result": 47.1, "unit": "%"}, {"measurement": "T/C", "setting": "200 mg/kg", "result": 34.3, "unit": "%"}]}
